Details: pH 5.0

SMILES | logD
O=C(NC[C@@H]1CCCO1)c1sc2ccccc2c1Cl | 3.56
CCOc1cc(C(=O)Nc2ccc(OC)c(OC)c2)cc(OCC)c1OCC | 4.11
CC1=NN(C(=O)c2ccccc2Cl)[C@](O)(c2ccc(Cl)cc2)C1 | 3.73
CC(=O)Oc1ccc(C(=O)Nc2cccc(C(=O)c3cccc(NC(=O)c4ccc(OC(C)=O)cc4)c3)c2)cc1 | 5.34
CC(=O)Nc1ccc(/N=C/c2c(O)oc3ccccc3c2=O)cc1 | 3.64
O=C(Cc1coc2cc3c(cc12)CCC3)O[C@H]1CCCCC1=O | 4.43
C#CCOc1ccc(C2C3=C(CC(C)(C)CC3=O)OC3=C2C(=O)CC(C)(C)C3)cc1OCC | 4.93

Same assay, conditions: pH 6.0

SMILES | logD
CC1=C(C(=O)N2CCCCC2)C(c2cccs2)C2=C(O)CCCC2=N1 (stereo not given) | 3.37

Same assay, conditions: pH 6.5

SMILES | logD
CC/C(=N\N=C1/S[C@@H](C)C(=O)N1Cc1ccco1)c1ccccc1 | 5.07
Cc1ccc(CN2C(=O)/C(=C/[C@@H]3CC=CCC3)SC2=S)cc1 | 6.26
O=P(Oc1ccccc1)(Oc1ccccc1)O[C@@H]1C=CS(=O)(=O)C1 | 2.48
C[C@H]1CCc2nc(NC(=O)c3ccc(F)c(F)c3)sc2C1 | 4.79
O=C(CN1C(=O)/C(=C2\SC(=S)N(Cc3ccco3)C2=O)c2ccccc21)Nc1ccc(F)cc1 | 6.36
COC(=O)c1cc(N2C(=O)[C@H]3[C@@H](C2=O)[C@]2(C(OC(C)=O)OC(C)=O)C=C[C@H]3O2)ccc1Cl | 3.77
CCCOc1ccc(N2C(=O)C[C@H](N3CCNC3=S)C2=O)cc1 | 2.68
CCN(C(=O)CN1C(=O)[C@H]2CCCC[C@H]2C1=O)c1nnc(-c2ccc(Cl)cc2)s1 | 4.91
CCn1c(NC[C@@H](O)c2ccccc2)nc2c1c(=O)n(C)c(=O)n2C | 3.24

Same assay, conditions: pH 7.0

SMILES | logD
Cc1ccc(N[C@H]2O[C@@H](CO)[C@H](O)[C@@H](O)[C@H]2O)cc1Br | 2.28
Cn1c([C@@H](C#N)C(=O)[C@@H](Sc2ccccc2)c2ccccc2)nc2ccccc21 | 5.28

Same assay, conditions: pH 7.3

SMILES | logD
CC(C)[C@@H](C(=O)Nc1nc(-c2ccc(S(=O)(=O)N3CCOCC3)cc2)cs1)N1C(=O)c2ccccc2C1=O | 5.32
CCCCOC(=O)C1=C(C)NC2=C(C(=O)CCC2)[C@H]1c1ccccc1OC | 4.21
COc1cccc([C@@H]2C3=C(CCCC3=O)N=C(C)C2C(=O)OC[C@@H]2CCCO2)c1 (stereo not given in full) | 3.62
CCOP(=O)(Cc1ccc(CP(=O)(OCC)OCC)o1)OCC | 3.25

Same assay, conditions: pH 8.0

SMILES | logD
COc1cc(/C=C/C(=O)Nc2ccc(N3CCCCC3)cc2)ccc1OC(F)F | 5.36
COc1ccc([C@@H](C)n2c(C)c3c(C)nnc(C)c3c2C)cc1 | 3.43

Same assay, conditions: pH 9.0

SMILES | logD
CC(=O)Nc1ccc([C@@H]2C(C#N)=C(N)Oc3[nH]nc(-c4cc(C)sc4C)c32)cc1 | 4.26

Same assay, conditions: pH 10.0

SMILES | logD
CCC[C@@H](C)NC(=O)COc1ncnc2sc3c(c12)CC[C@@H](C)C3 | 4.55
CC(=O)c1ccc(N2CCN(C(=O)/C=C/c3ccc(C)o3)CC2)cc1 | 4.3
CCOC(=O)C1=C(N)N2C(=O)[C@H](C)SC2=C(C(=O)OCC)[C@H]1c1ccc(Cl)cc1Cl | 5.49
CCc1ccc([C@@H]2C(C(=O)OC(C)C)=C(C)N=C3SCCC(=O)N32)cc1 | 4.75
CSc1ccc([C@@H]2[C@@H]3C(=O)N(c4cccc(C(F)(F)F)c4)C(=O)[C@H]3ON2c2ccccc2)cc1 | 5.98
Clc1cccc(Cl)c1Cn1ccc(Nc2nnc(Cc3ccc(-n4cnnn4)cc3)s2)n1 | 4.99
CC(C)(C)C(=O)[C@H]1[C@H](c2ccsc2)C(C#N)(C#N)[C@H]2C=Cc3ccccc3N12 | 3.37

Same assay, conditions: pH 10.5

SMILES | logD
COCCOC(=O)C1=C(C)NC2=C(C(=O)CC(c3cccc(OC)c3)C2)C1c1coc2ccc(C)cc2c1=O (stereo not given) | 5.23
Clc1ccc(/C=N/NC2=Cn3c(nc4ccccc43)NN2)cc1 | 4.81
CCN(C(=O)[C@@H](C)OC(=O)c1cc(OC)c(OC)c(OC)c1)c1ccccc1 | 3.4
N#CC1=C(N)Oc2c(c(=O)oc3ccccc23)[C@H]1c1cccs1 | 2.34
CC(C)=CCCC1=NN(C=O)[C@@](C)(CCC=C(C)C)C1 | 5.02
CCOc1ccc(C2=NN=C3OC(N)=C(C#N)[C@@H](c4ccco4)[C@@H]32)c(OCC)c1 | 4.48
Cc1cc(C)n(CCOC(=O)[C@H]2[C@H](C=C(Cl)Cl)C2(C)C)n1 | 4.76
CC1(C)CC(=O)C2=C(C1)OC(N)=C(C#N)[C@H]2c1c2ccccc2cc2ccccc12 | 4.99
CC[C@@H]1CCCCN1C(=O)CSc1nc(C)cc(C)n1 | 3.61
C/C(=C\c1ccco1)[C@H]1C(C#N)=C(N)Oc2n[nH]c(-c3ccccc3)c21 | 4.82
COc1cc([C@@H]2C(C#N)=C(N)Oc3[nH]nc(C)c32)ccc1OCc1cccc(F)c1 | 4.42
N#C/C(=C/c1ccc2c(c1)OCO2)C(=O)N=C1c2ccccc2CN1c1cccc([N+](=O)[O-])c1 | 5.4
CCOC(=O)C1CCN(C(=O)c2ccc(Cl)c(/N=C3/N[C@@H]4CS(=O)(=O)C[C@@H]4S3)c2)CC1 | 2.96
CC(=O)C1=C(C)NC(SCC(=O)Nc2ccccc2)=C(C#N)[C@H]1c1ccccc1Cl | 4.97
Cc1ccc([C@@H](O)C#CC(O)(c2ccccc2)c2ccccc2)o1 | 3.53
O=[N+]([O-])c1ccc(-c2nc3nc4ccccc4nc3n2C[C@@H]2CCCO2)cc1 | 3.75
CN(C)/C=C/C(=O)c1ccc(C#Cc2ccccc2)cc1 | 4.69
